In article PMC10967822, “Antimicrobial Indole-3-Carboxamido-Polyamine Conjugates Target Bacterial Membranes and Are Antibiotic Potentiators” (Biomolecules, 2024):
Converted amounts (≈) assume the structure as drawn.

Experiments:
P. aeruginosa ATCC 27853 [1] = assay: Doxycycline potentiation against P. aeruginosa; format: cell-based, Pseudomonas aeruginosa; details: doxycycline at 2 µg/mL (4.5 µM); for Dox/Pa fold-change (intrinsic MIC / combination MIC): P. aeruginosa ATCC 27853; for Dox/Pa: concentration required to restore doxycycline activity (combination MIC): P. aeruginosa ATCC 27853, mean n = 3
Excerpt: (§1) These measurements were independently repeated in triplicate.

P. aeruginosa ATCC 27853 [2] = assay: MIC, broth dilution, P. aeruginosa; format: cell-based, Pseudomonas aeruginosa; details: Pseudomonas aeruginosa, ATCC27853; P. aeruginosa ATCC 27853, 18 h; read-out: MIC Pa
A. baumannii ATCC 19606 = assay: MIC, broth microdilution (CO-ADD), A. baumannii; format: cell-based, Acinetobacter baumannii; details: Acinetobacter baumannii, ATCC19606, top dose 32 µg/mL
[3] = Cytotoxicity assay (resazurin); format: cell-based; details: human, HEK293 cells, mean n = 2
[4] = system: K. pneumoniae ATCC 700603; assay: MIC, broth microdilution (CO-ADD), K. pneumoniae; details: top dose 32 µg/mL
MRSA ATCC 43300 = assay: MIC, broth microdilution (CO-ADD), MRSA; format: cell-based, methicillin-resistant S. aureus; details: Staphylococcus aureus; MRSA ATCC 43300; top dose 32 µg/mL; read-out: MIC MRSA
S. aureus ATCC 25923 = assay: MIC, broth dilution, S. aureus; format: cell-based, Staphylococcus aureus; details: Staphylococcus aureus, ATCC25923; S. aureus ATCC 25923, 18 h; read-out: MIC Sa
E. coli ATCC 25922 [5] = assay: MIC, broth dilution, E. coli; format: cell-based, Escherichia coli; details: Escherichia coli, ATCC25922; E. coli ATCC 25922, 18 h
[6] = system: C. neoformans ATCC 208821; assay: Antifungal MIC (CO-ADD), C. neoformans; format: cell-based; details: Cryptococcus neoformans, ATCC208821, top dose 32 µg/mL
Protocol: (§2) For the antifungal assay, fungi strains were cultured for 3 days on YPD agar at 30 °C. A yeast suspension of 1 × 10^6 to 5 × 10^6 CFU/mL was prepared from five colonies. These stock suspensions were diluted with a yeast nitrogen base (YNB) (Becton Dickinson, 233520, New South Wales, Australia) broth to a final concentration of 2.5 × 10^3 CFU/mL. […] The plates were covered and incubated at 35 °C for 36 h without shaking. C. albicans MICs were determined by measuring the absorbance at OD530. For C. neoformans, resazurin was added at a 0.006% final concentration to each well and incubated for a further 3 h before the MICs were determined by measuring the absorbance at OD570–600. […] Fluconazole was used as a positive fungal inhibitor standard for C. albicans and C. neoformans. […] The quality control (QC) of the assays was determined by the antimicrobial controls and the Z′-factor (using positive and negative controls).

human red blood cells = assay: Hemolytic assay; format: cell-based; details: 10% hemolytic activity, mean n = 2
Protocol: Human whole blood was washed three times with three volumes of 0.9% NaCl and then resuspended in the same solution to a concentration of 0.5 × 10^8 cells/mL, as determined by the manual cell count in a Neubauer hemocytometer. The washed cells were then added to the 384-well compound-containing plates for a final volume of 50 μL. After a 10 min shake on a plate shaker, the plates were then incubated for 1 h at 37 °C. After incubation, the plates were centrifuged at 1000× g for 10 min to pellet cells and debris; 25 μL of the supernatant was then transferred to a polystyrene 384-well assay plate. Hemolysis was determined by measuring the supernatant absorbance at […] (OD405). The absorbance was measured using a Tecan M1000 Pro monochromator plate reader. HC10 and HC50 (concentrations at 10% and 50% hemolysis, respectively) were calculated by a curve fitting the inhibition values vs. log (concentration) using a sigmoidal dose–response function with variable fitting values for the top, bottom, and slope.

C. albicans ATCC 90028 = assay: Antifungal MIC (CO-ADD), C. albicans; format: cell-based; details: Candida albicans, ATCC90028, top dose 32 µg/mL
Protocol: as §2

E. coli ATCC 25922 [7] = assay: Erythromycin potentiation against E. coli; format: cell-based, Escherichia coli; details: erythromycin at 2 µg/mL (2.7 µM); for Erythro/Ec fold-change (intrinsic MIC / combination MIC): E. coli; for Erythro/Ec: concentration required to restore erythromycin activity (combination MIC): mean n = 3
Excerpt: as §1

SMILES | Dox/Pa fold-change (intrinsic MIC / combination MIC) (P. aeruginosa ATCC 27853 [1]) [fold] | Dox/Pa: concentration required to restore doxycycline activity (combination MIC) (P. aeruginosa ATCC 27853 [1]) [µM] | MIC (P. aeruginosa ATCC 27853 [2]) [µM] | MIC (A. baumannii ATCC 19606) [µM] | MIC Kp [4] [µM] | MIC (MRSA ATCC 43300) [µM] | MIC (S. aureus ATCC 25923) [µM] | MIC (E. coli ATCC 25922 [5]) [µM] | MIC [6] [µM] | MIC (C. albicans ATCC 90028) [µM] | Erythro/Ec fold-change (intrinsic MIC / combination MIC) (E. coli ATCC 25922 [7]) [fold] | Erythro/Ec: concentration required to restore erythromycin activity (combination MIC) (E. coli ATCC 25922 [7]) [µM] | IC50 at 20 h [3] [µM] | Hemolysis HC10 (human red blood cells) [µM]
COc1ccc2[nH]cc(C(=O)NCCCNCCCCCCCCCCCCNCCCNC(=O)c3c[nH]c4ccc(OC)cc34)c2c1.O=C(O)C(F)(F)F.O=C(O)C(F)(F)F [Compound 14f] | 2 | 56.2 | 112 | > 36 | >36 | ≤ 0.28 | 3.52 | 14.1 | ≤ 0.28 | ≤ 0.28 | 1 | 14.1 | > 36 | >36
Cc1ccc2[nH]cc(C(=O)NCCCNCCCCNCCCNC(=O)c3c[nH]c4ccc(C)cc34)c2c1 [Compound 15a] | > 8 | 33.6 | > 269 | > 43 | >43 | ≤ 0.34 | 67.1 (≈ 34.7 µg/mL) | > 269 | ≤ 0.34 | > 43 | > 4 | 67.1 | > 43 | >43
Cc1ccc2[nH]cc(C(=O)NCCCNCCCCCCNCCCNC(=O)c3c[nH]c4ccc(C)cc34)c2c1 [Compound 15b] | > 8 | 32.4 | > 259 | > 41 | >41 | 5.18 (≈ 2.82 µg/mL) | 259 (≈ 141 µg/mL) | 129 (≈ 70.3 µg/mL) | ≤ 0.32 | > 41 | 4 | 32.4 | > 41 | >41
Cc1ccc2[nH]cc(C(=O)NCCCNCCCCCCCNCCCNC(=O)c3c[nH]c4ccc(C)cc34)c2c1 [Compound 15c] | > 4 | 63.5 | > 254 | > 41 | >41 | ≤ 0.32 | 63.5 (≈ 35.5 µg/mL) | 254 (≈ 142 µg/mL) | ≤ 0.32 | > 41 | 4 | 63.5 | > 41 | >41
Cc1ccc2[nH]cc(C(=O)NCCCNCCCCCCCCNCCCNC(=O)c3c[nH]c4ccc(C)cc34)c2c1 [Compound 15d] | 8 | 31.2 | 250 (≈ 143 µg/mL) | > 40 | >40 | ≤ 0.31 | 31.2 (≈ 17.9 µg/mL) | 125 (≈ 71.6 µg/mL) | ≤ 0.31 | > 40 | 4 | 31.2 | > 40 | >40
Cc1ccc2[nH]cc(C(=O)NCCCNCCCCCCCCCCNCCCNC(=O)c3c[nH]c4ccc(C)cc34)c2c1 [Compound 15e] | 4 | 15.1 | 60.3 (≈ 36.2 µg/mL) | 19.3 (≈ 11.6 µg/mL) | >39 | ≤ 0.3 | 3.77 (≈ 2.27 µg/mL) | 30.2 (≈ 18.1 µg/mL) | ≤ 0.3 | ≤ 0.3 | 4 | 7.54 | > 39 | >39
Cc1ccc2[nH]cc(C(=O)NCCCNCCCCCCCCCCCCNCCCNC(=O)c3c[nH]c4ccc(C)cc34)c2c1.O=C(O)C(F)(F)F.O=C(O)C(F)(F)F [Compound 15f] | 0.5 | 117 | 58.3 | ≤ 0.29 | >37.3 | ≤ 0.29 | 3.65 | 29.2 | ≤ 0.29 | ≤ 0.29 | 1 | 29.2 | 0.55 | >37

More lines, main results first:

Dox/Pa fold-change (intrinsic MIC / combination MIC) (P. aeruginosa ATCC 27853 [1]) [fold] | Dox/Pa: concentration required to restore doxycycline activity (combination MIC) (P. aeruginosa ATCC 27853 [1]) [µM] | MIC (P. aeruginosa ATCC 27853 [2]) [µM] | MIC (A. baumannii ATCC 19606) [µM] | MIC Kp [4] [µM] | MIC (MRSA ATCC 43300) [µM] | MIC (S. aureus ATCC 25923) [µM] | MIC (E. coli ATCC 25922 [5]) [µM] | MIC [6] [µM] | MIC (C. albicans ATCC 90028) [µM] | Erythro/Ec fold-change (intrinsic MIC / combination MIC) (E. coli ATCC 25922 [7]) [fold] | Erythro/Ec: concentration required to restore erythromycin activity (combination MIC) (E. coli ATCC 25922 [7]) [µM] | SMILES | IC50 at 20 h [3] [µM] | Hemolysis HC10 (human red blood cells) [µM]
> 4 | 62.9 | 251 (≈ 142 µg/mL) | > 40 | >40 | ≤ 0.31 | > 251 | > 251 | ≤ 0.31 | > 40 | 1 | 252 | O=C(NCCCNCCCCCCCNCCCNC(=O)c1c[nH]c2c(F)cccc12)c1c[nH]c2c(F)cccc12 [Compound 16c] | > 40 | >40
> 8 | 30.9 | 247 (≈ 143 µg/mL) | > 40 | >40 | 9.89 (≈ 5.74 µg/mL) | 247 (≈ 143 µg/mL) | 247 (≈ 143 µg/mL) | ≤ 0.31 | > 40 | 1 | 247 | O=C(NCCCNCCCCCCCCNCCCNC(=O)c1c[nH]c2c(F)cccc12)c1c[nH]c2c(F)cccc12 [Compound 16d] | > 40 | >40
8 | 29.9 | 239 (≈ 145 µg/mL) | > 38 | >38 | ≤ 0.3 | 239 (≈ 145 µg/mL) | 239 (≈ 145 µg/mL) | ≤ 0.3 | ≤ 0.3 | 1 | 239 | O=C(NCCCNCCCCCCCCCCNCCCNC(=O)c1c[nH]c2c(F)cccc12)c1c[nH]c2c(F)cccc12 [Compound 16e] | > 38 | >38
1 | 116 | 116 | > 37 | >37 | ≤ 0.29 | 231 | 231 | ≤ 0.29 | > 37 | 1 | 231 | O=C(NCCCNCCCCCCCCCCCCNCCCNC(=O)c1c[nH]c2c(F)cccc12)c1c[nH]c2c(F)cccc12.O=C(O)C(F)(F)F.O=C(O)C(F)(F)F [Compound 16f] | > 37 | >37
